# Data taken from ChEMBL document CHEMBL5230130, “COVID-19 therapy: What weapons do we bring into battle?” (Bioorg Med Chem, 2020).
# Key:
# Canine coronavirus = assay: Antiviral activity against Canine coronavirus S-378 infected in dog A-72 cells; format: functional, organism-based; conditions: Alphacoronavirus 1, S-378, A-72
# SARS-CoV-2 [1] = assay: Antiviral activity against SARS-COV 2; format: functional, organism-based; conditions: Severe acute respiratory syndrome coronavirus 2
# RAW264.7 = assay: Anti-inflammatory activity against mouse RAW264.7 cells assessed as reduction in LPS induced IL-6 level by ELISA analysis; format: functional, cell-based
# [2] = Inhibition of human enteric coronavirus strain 4408 nucleoprotein
# Peritoneal macrophage = assay: Anti-inflammatory activity against mouse peritoneal macrophages assessed as reduction in LPS induced IL-6 level by ELISA analysis; format: functional, cell-based
# [3] = Inhibition of Bovine coronavirus nucleoprotein
# SARS-CoV-2 [4] = assay: Antiviral activity against SARS-COV-2 infected in African green monkey Vero E6 cells; format: functional, organism-based; conditions: Severe acute respiratory syndrome coronavirus 2, Vero C1008
# SARS-CoV-2 [5] = assay: Antiviral activity against SARS-COV-2 infected in African green monkey Vero E6 cells assessed as inhibition of viral growth at 0.195 uM relative to control; format: functional; conditions: Severe acute respiratory syndrome coronavirus 2, Vero C1008
# SARS-CoV-2 [6] = assay: Antiviral activity against SARS-CoV-2 nCoV-2019 BetaCoV/Wuhan/WIV04/2019 infected in African green monkey Vero E6 cells assessed as reduction in virus-induced cytopathic effect incubated for 48 hrs by qRT-PCR analysis; format: functional, organism-based; conditions: Severe acute respiratory syndrome coronavirus 2, nCoV-2019 BetaCoV/Wuhan/WIV04/2019, Vero C1008, 48 h
# [7] = Cytotoxicity against African green monkey Vero E6 cells assessed as cell growth inhibition measured after 48 hrs by CCK-8 assay; format: toxicity, cell-based, Vero C1008; conditions: chlorocebus sabaeus
# [8] = Antiviral activity against hCoV-EMC/2012 infected in African green monkey Vero cells assessed as reduction in virus-induced cytopathic effect incubated for 24 hrs by […] assay; format: functional, cell-based, Human betacoronavirus 2c EMC/2012; conditions: Middle East respiratory syndrome-related coronavirus
# [9] = Antiviral activity against hCoV-EMC/2012 infected in monkey LLC-MK2 cells assessed as reduction in viral titers; format: functional, Human betacoronavirus 2c EMC/2012
# [10] = Cytotoxicity against human Calu-3 2B4 cells assessed as cell growth inhibition measured after 48 hrs by celltiterglo assay; format: toxicity, cell-based
# [11] = system: Middle East respiratory syndrome-related coronavirus; assay: Antiviral activity against MERS-CoV infected in human Calu-3 2B4 cells assessed as reduction in virus-induced cytopathic effect incubated for 48 hrs by celltiterglo assay; format: functional, organism-based; conditions: Calu-3 2B4, 48 h
# SARS-CoV-2 [12] = assay: Antiviral activity against SARS-COV-2 infected in African green monkey Vero E6 cells assessed as inhibition of viral growth at 6.25 uM relative to control; format: functional; conditions: Severe acute respiratory syndrome coronavirus 2, Vero C1008
# [13] = system: Middle East respiratory syndrome-related coronavirus; assay: Antiviral activity against MERS-CoV infected in African green monkey Vero E6 cells assessed as reduction in virus-induced cytopathic effect incubated for 48 hrs by celltiterglo assay; format: functional, organism-based; conditions: Vero C1008, 48 h
# SARS-CoV = assay: Antiviral activity against SARS-COV infected in African green monkey Vero E6 cells assessed as reduction in virus-induced cytopathic effect incubated for 48 hrs by celltiterglo assay; format: functional, organism-based; conditions: Severe acute respiratory syndrome-related coronavirus, Vero C1008, 48 h
# SARS-CoV-2 [14] = assay: Antiviral activity against SARS-COV-2 Australia/VIC01/2020 infected in African green monkey Vero cells by RT-PCR assay; format: functional, organism-based, Severe acute respiratory syndrome coronavirus 2
compound,measurement,setting,value
O=C(Nc1ncc([N+](=O)[O-])s1)c1ccccc1O [TIZOXANIDE],IC50,Canine coronavirus,1 µg/mL
CC(=O)N[C@@H]1[C@H](Oc2c3cc4cc2Oc2ccc(cc2Cl)[C@@H](O[C@@H]2O[C@@H](CO)[C@@H](O)[C@H](O)[C@@H]2NC(C)=O)[C@@H]2NC(=O)[C@H](NC(=O)[C@@H]4NC(=O)[C@H]4NC(=O)[C@@H](Cc5ccc(c(Cl)c5)O3)NC(=O)[C@H](N)c3ccc(O)c(c3)Oc3cc(O)cc4c3)c3ccc(O)c(c3)-c3c(O[C@H]4O[C@H](CO)[C@@H](O)[C@@H](O)[C@@H]4O)cc(O)cc3[C@@H](C(=O)O)NC2=O)O[C@@H](CO)[C@@H](O)[C@@H]1O,IC50,SARS-CoV-2 [1],1.66 µM
CC(=O)Oc1ccccc1C(=O)Nc1ncc([N+](=O)[O-])s1 [NITAZOXANIDE],IC50,RAW264.7,1540 µM
same,IC50,[2],0.3 µg/mL
same,IC50,Peritoneal macrophage,2000 µM
same,IC50,[3],0.3 µg/mL
COC(=O)C[C@](O)(CCCC(C)(C)O)C(=O)O[C@@H]1C(OC)=C[C@]23CCCN2CCc2cc4c(cc2[C@H]13)OCO4 [OMACETAXINE MEPESUCCINATE],EC50,SARS-CoV-2 [4],2.1 µM
CC[C@H]1CN2CCc3cc(OC)c(OC)cc3[C@@H]2C[C@@H]1C[C@H]1NCCc2cc(OC)c(OC)cc21 [EMETINE],inhibition at 0.195 µM,SARS-CoV-2 [5],64.9%
NC(=O)c1ncn([C@@H]2O[C@H](CO)[C@@H](O)[C@H]2O)n1 [RIBAVIRIN],EC50,SARS-CoV-2 [6],11000 µM
same,CC50 at 48 h,[7],> 400 µM
same,IC50,[8],41.4 µg/mL
same,TCID50,[9],13.7 µg/mL
CCC(CC)COC(=O)[C@H](C)N[P@](=O)(OC[C@H]1O[C@@](C#N)(c2ccc3c(N)ncnn23)[C@H](O)[C@@H]1O)Oc1ccccc1,CC50 at 48 h,[10],10 µM
same,IC50,[11],0.025 µM
same,inhibition at 6.25 µM,SARS-CoV-2 [12],64.9%
Nc1ccn([C@@H]2O[C@H](CO)[C@@H](O)C2(F)F)c(=O)n1 [GEMCITABINE],EC50,[13],1.2 µM
same,EC50,SARS-CoV,4.9 µM
IVERMECTIN,IC50,SARS-CoV-2 [14],2 µM
